Reference: ChEMBL document CHEMBL5463723, “Data for DCP probe BIBO3304” (2023)

Columns and labels:
[1] = target: Beta-2 adrenergic receptor (Rattus norvegicus) (UniProt P10608); assay: Activity against BETA2/R in the Eurofins Panlabs screen (BI) by Radioactive Assay; conditions: Compound concentration 10.0 uM
[2] = target: Neutrophil elastase (Homo sapiens) (UniProt P08246); assay: Activity against ELASTASEPMN in the Eurofins Panlabs screen (BI) by absorption of electromagnetic radiation; conditions: Compound concentration 30.0 uM
[3] = target: Muscarinic acetylcholine receptor M1 (Rattus norvegicus) (UniProt P08482); assay: Activity against M1/R in the Eurofins Panlabs screen (BI) by Radioactive Assay; conditions: Compound concentration 10.0 uM
[4] = target: Muscarinic acetylcholine receptor M1 (Homo sapiens) (UniProt P11229); assay: M1 Eurofins-Cerep binding assay; parameters: ligand concentration 2 nM; conditions: Compound concentration 10.0 uM
[5] = target: D(2) dopamine receptor (Homo sapiens) (UniProt P14416); assay: Agonist activity in the Eurofins Cerep SafetyScreen44 (BI) against D2SH_AGON by Scintillation counting (Cerep_1322); conditions: Compound concentration 10.0 uM
[6] = species on record: Mus musculus; assay: Inhibitor of PHORBOLE/M in the Eurofins Panlabs screen (BI) by Radioactive Assay; conditions: Compound concentration 10.0 uM
[7] = target: Gamma-aminobutyric acid receptor subunit alpha-1 (Rattus norvegicus) (UniProt P62813); assay: Activity against GABAACENTR in the Eurofins Panlabs screen (BI) by Radioactive Assay; conditions: Compound concentration 10.0 uM
[8] = target: T1, Neuropeptide Y receptor type 2 (Homo sapiens, UniProt P49146); assay: Radioligand binding assay (NPY2R, BHK); assay type: cell-based, BHK-21
T1 sequence (P49146 whole entry): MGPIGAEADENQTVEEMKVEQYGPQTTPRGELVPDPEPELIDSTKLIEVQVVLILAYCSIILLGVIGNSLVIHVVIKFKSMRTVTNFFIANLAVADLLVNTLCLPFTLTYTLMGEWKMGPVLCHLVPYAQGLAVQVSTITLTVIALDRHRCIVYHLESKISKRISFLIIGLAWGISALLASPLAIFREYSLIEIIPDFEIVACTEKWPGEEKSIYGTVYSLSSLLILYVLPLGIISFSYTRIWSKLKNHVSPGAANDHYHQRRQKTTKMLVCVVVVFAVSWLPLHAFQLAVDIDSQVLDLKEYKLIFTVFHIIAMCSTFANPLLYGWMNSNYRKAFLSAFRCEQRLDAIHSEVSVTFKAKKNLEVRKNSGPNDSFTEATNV

[9] = target: Interleukin-6 receptor subunit alpha (Homo sapiens) (UniProt P08887); assay: Activity against IL-6/H in the Eurofins Panlabs screen (BI) by SPA - blue shifted; conditions: Compound concentration 10.0 uM
[10] = target: 5-hydroxytryptamine receptor 3A (Homo sapiens) (UniProt P46098); assay: 5-HT3 Eurofins-Cerep binding assay; parameters: ligand concentration 0.5 nM; conditions: Compound concentration 10.0 uM
[11] = target: Glutamate NMDA receptor (Rattus norvegicus) (UniProt P35439+Q00959+Q00960+Q00961+Q62645+Q8VHN2+Q9R1M7); assay: Inhibitor of NMDA/R in the Eurofins Cerep SafetyScreen44 (BI) by Radioactive Assay (Cerep_66); assay type: protein-complex assay; conditions: Compound concentration 10.0 uM
[12] = target: Substance-P receptor (Cavia porcellus) (UniProt P30547); assay: Activity against NK1/GP in the Eurofins Panlabs screen (BI) by Radioactive Assay; conditions: Compound concentration 10.0 uM
[13] = target: Alpha-1D adrenergic receptor (Rattus norvegicus) (UniProt P23944); assay: Activity against ALPHA1/R in the Eurofins Panlabs screen (BI) by Others; conditions: Compound concentration 10.0 uM
[14] = target: 5-hydroxytryptamine receptor 1A (Homo sapiens) (UniProt P08908); assay: 5-HT1A Eurofins-Cerep binding assay; parameters: ligand concentration 0.5 nM; conditions: Compound concentration 10.0 uM
[15] = target: Polyunsaturated fatty acid lipoxygenase ALOX15 (Oryctolagus cuniculus) (UniProt P12530); assay: Inhibitor of 15LO in the Eurofins Panlabs screen (BI) by absorption of electromagnetic radiation; conditions: Compound concentration 30.0 uM
[16] = target: Histamine H2 receptor (Homo sapiens) (UniProt P25021); assay: H2 Eurofins-Cerep binding assay; parameters: ligand concentration 0.075 nM; conditions: Compound concentration 10.0 uM
[17] = target: Beta-1 adrenergic receptor (Homo sapiens) (UniProt P08588); assay: beta 1 Eurofins-Cerep binding assay; parameters: ligand concentration 0.3 nM; conditions: Compound concentration 10.0 uM
[18] = target: Glutamate receptor ionotropic, NMDA 2A (Rattus norvegicus) (UniProt Q00959); assay: Activity against NMDAPHSI/R in the Eurofins Panlabs screen (BI) by Radioactive Assay; conditions: Compound concentration 10.0 uM
[19] = target: Cholecystokinin receptor type A (Homo sapiens) (UniProt P32238); assay: CCK1 (CCKA) Eurofins-Cerep binding assay; parameters: ligand concentration 0.08 nM; conditions: Compound concentration 10.0 uM
[20] = target: Adrenergic receptor alpha-2 (Rattus norvegicus) (UniProt P22086+P19328+P22909); assay: Activity against ALPHA2/R in the Eurofins Panlabs screen (BI) by Others; assay type: protein assay; conditions: Compound concentration 10.0 uM
[21] = target: Neuropeptide Y receptor type 5 (Homo sapiens, UniProt Q15761); assay: Radioligand binding assay (human NPY5R, HEK293); assay type: cell-based
[22] = target: Alpha-1A adrenergic receptor (Homo sapiens) (UniProt P35348); assay: Agonist activity in the Eurofins Cerep SafetyScreen44 (BI) against ALPHA1AH_ANTAG by Scintillation counting (Cerep_2338); conditions: Compound concentration 10.0 uM
[23] = target: D(1B) dopamine receptor (Homo sapiens) (UniProt P21918); assay: Activity against D5/HU in the Eurofins Panlabs screen (BI) by Radioactive Assay; conditions: Compound concentration 10.0 uM
[24] = target: Leukotriene A-4 hydrolase (Cavia porcellus) (UniProt P19602); assay: Inhibitor of LTA4HYD in the Eurofins Panlabs screen (BI) by Radioactive Assay; conditions: Compound concentration 100.0 uM
[25] = target: Muscarinic acetylcholine receptor M3 (Homo sapiens) (UniProt P20309); assay: M3 Eurofins-Cerep binding assay; parameters: ligand concentration 0.2 nM; conditions: Compound concentration 10.0 uM
[26] = target: Neuropeptide Y receptor type 4 (Rattus norvegicus, UniProt Q63447); assay: Radioligand binding assay (rat NPY4R, CHO cells); assay type: cell-based
[27] = target: Leukotriene C4 synthase (Cavia porcellus) (UniProt A6XA80); assay: Inhibitor of LTC4SYN in the Eurofins Panlabs screen (BI) by Radioactive Assay; conditions: Compound concentration […] uM
[28] = target: Muscarinic acetylcholine receptor (Oryctolagus cuniculus) (UniProt A0A5F9DUN4); assay: Activity against M4/RB in the Eurofins Panlabs screen (BI) by Radioactive Assay; conditions: Compound concentration 10.0 uM
[29] = target: Prostaglandin G/H synthase 2 (Homo sapiens) (UniProt P35354); assay: Inhibitor of COX-2 in the Eurofins Cerep SafetyScreen44 (BI) by Fluorimetry (Cerep_4186); conditions: Compound concentration 10.0 uM
[30] = target: C-X-C chemokine receptor type 2 (Homo sapiens) (UniProt P25025); assay: Activity against IL-8/H in the Eurofins Panlabs screen (BI) by Radioactive Assay; conditions: Compound concentration 10.0 uM
[31] = species on record: Cavia porcellus; assay: Activity against ANF/GP in the Eurofins Panlabs screen (BI) by Radioactive Assay; conditions: Compound concentration 10.0 uM
[32] = target: LTB4 receptor (Cavia porcellus) (UniProt Q9WTK1); assay: Activity against LTB4GP in the Eurofins Panlabs screen (BI) by Radioactive Assay; conditions: Compound concentration 10.0 uM
[33] = target: Metabotropic glutamate receptor (Rattus norvegicus) (UniProt P31424+P70579+P31423+P31421+P31422+P35349+P35400+P23385); assay: Activity against GLUTAMAT/R in the Eurofins Panlabs screen (BI) by Radioactive Assay; assay type: protein assay; conditions: Compound concentration 10.0 uM
[34] = target: Protein kinase C gamma type (Homo sapiens) (UniProt P05129); assay: Inhibitor of PKCGAMMA in the Eurofins Panlabs screen (BI) by Radioactive Assay; conditions: Compound concentration 10.0 uM
[35] = target: Kappa-type opioid receptor (Cavia porcellus) (UniProt P41144); assay: Activity against KAPPA/GP in the Eurofins Panlabs screen (BI) by Radioactive Assay; conditions: Compound concentration 10.0 uM

Chain of LTB4 receptor (Cavia porcellus) (Q9WTK1 as listed by the source): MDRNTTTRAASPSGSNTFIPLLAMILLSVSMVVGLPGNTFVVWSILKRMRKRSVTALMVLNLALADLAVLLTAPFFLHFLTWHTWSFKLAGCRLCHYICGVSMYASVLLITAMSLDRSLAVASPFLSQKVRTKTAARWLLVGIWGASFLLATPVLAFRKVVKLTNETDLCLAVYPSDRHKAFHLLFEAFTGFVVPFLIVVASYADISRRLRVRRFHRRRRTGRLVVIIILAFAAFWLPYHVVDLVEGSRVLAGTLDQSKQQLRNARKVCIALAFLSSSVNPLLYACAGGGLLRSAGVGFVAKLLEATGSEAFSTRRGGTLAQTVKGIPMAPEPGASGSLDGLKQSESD
Chain of C-X-C chemokine receptor type 2 (Homo sapiens) (P25025 whole entry): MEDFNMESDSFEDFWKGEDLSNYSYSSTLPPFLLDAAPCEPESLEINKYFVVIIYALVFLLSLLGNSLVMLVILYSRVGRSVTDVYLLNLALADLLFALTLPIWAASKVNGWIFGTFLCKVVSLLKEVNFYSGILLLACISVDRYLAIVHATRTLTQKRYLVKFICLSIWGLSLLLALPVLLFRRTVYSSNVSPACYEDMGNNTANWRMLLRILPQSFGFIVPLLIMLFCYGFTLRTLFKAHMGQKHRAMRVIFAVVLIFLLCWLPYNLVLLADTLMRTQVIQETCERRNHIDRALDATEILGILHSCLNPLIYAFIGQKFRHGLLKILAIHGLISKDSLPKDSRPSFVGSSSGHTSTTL
Chain of Beta-2 adrenergic receptor (Rattus norvegicus) (P10608 whole entry, looked up): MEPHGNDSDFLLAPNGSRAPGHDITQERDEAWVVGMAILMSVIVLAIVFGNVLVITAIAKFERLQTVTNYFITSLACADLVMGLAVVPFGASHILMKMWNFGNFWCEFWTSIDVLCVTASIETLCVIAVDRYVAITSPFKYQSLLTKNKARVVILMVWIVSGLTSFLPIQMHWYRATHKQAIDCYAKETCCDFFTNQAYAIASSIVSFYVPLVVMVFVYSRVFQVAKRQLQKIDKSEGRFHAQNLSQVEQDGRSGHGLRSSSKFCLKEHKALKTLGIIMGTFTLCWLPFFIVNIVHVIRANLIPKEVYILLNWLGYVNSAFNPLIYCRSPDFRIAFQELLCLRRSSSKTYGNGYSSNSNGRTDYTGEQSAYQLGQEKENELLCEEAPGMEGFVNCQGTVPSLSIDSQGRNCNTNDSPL
Chain of Neutrophil elastase (Homo sapiens) (P08246 whole entry): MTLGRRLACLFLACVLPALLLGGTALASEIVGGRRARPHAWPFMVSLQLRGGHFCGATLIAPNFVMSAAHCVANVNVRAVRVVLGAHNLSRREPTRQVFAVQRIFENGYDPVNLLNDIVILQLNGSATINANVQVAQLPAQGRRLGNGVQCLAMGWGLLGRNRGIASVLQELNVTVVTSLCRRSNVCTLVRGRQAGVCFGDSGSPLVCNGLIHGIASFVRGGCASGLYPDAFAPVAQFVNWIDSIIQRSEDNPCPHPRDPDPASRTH
Chain of Muscarinic acetylcholine receptor (Oryctolagus cuniculus) (A0A5F9DUN4 as listed by the source): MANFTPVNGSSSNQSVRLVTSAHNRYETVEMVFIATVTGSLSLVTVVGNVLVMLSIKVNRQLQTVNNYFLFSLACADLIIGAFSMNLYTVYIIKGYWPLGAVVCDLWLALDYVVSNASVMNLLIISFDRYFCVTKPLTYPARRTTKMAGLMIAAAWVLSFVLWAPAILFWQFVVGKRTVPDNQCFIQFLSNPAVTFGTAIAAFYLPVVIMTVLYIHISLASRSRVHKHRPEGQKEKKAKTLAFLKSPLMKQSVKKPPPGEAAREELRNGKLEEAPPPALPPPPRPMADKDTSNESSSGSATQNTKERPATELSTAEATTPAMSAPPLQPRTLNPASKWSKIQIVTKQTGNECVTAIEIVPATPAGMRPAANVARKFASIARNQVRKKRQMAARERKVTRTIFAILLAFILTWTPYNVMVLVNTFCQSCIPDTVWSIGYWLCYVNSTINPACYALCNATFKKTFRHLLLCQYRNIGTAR
Chain of Alpha-1D adrenergic receptor (Rattus norvegicus) (P23944 whole entry): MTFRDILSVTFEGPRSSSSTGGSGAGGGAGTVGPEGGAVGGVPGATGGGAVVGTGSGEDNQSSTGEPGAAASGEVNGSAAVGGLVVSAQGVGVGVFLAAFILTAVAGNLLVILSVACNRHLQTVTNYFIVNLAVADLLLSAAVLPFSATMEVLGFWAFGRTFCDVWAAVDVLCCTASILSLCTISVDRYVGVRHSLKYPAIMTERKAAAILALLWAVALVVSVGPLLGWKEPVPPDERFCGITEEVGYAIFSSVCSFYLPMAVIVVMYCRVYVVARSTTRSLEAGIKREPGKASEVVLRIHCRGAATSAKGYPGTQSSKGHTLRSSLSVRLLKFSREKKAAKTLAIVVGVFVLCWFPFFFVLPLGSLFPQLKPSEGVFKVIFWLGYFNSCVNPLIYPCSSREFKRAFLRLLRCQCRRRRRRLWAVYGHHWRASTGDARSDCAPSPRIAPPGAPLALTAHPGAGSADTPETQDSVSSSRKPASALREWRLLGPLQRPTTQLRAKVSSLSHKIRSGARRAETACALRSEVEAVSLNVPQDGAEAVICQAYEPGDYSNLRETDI
Chain of Alpha-1A adrenergic receptor (Homo sapiens) (P35348 whole entry): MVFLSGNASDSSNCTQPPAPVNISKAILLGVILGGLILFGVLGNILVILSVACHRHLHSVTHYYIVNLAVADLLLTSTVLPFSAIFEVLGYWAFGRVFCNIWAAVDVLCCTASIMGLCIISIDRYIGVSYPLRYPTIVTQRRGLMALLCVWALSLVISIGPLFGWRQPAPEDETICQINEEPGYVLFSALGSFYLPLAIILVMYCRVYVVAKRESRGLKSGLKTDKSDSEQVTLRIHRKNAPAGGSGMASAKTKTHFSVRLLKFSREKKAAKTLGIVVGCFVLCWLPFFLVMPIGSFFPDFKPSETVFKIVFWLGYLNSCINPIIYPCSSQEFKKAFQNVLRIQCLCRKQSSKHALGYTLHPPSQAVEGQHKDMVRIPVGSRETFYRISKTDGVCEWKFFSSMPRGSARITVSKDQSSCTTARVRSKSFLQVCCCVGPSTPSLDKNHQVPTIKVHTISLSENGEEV
Chain of D(2) dopamine receptor (Homo sapiens) (P14416 whole entry): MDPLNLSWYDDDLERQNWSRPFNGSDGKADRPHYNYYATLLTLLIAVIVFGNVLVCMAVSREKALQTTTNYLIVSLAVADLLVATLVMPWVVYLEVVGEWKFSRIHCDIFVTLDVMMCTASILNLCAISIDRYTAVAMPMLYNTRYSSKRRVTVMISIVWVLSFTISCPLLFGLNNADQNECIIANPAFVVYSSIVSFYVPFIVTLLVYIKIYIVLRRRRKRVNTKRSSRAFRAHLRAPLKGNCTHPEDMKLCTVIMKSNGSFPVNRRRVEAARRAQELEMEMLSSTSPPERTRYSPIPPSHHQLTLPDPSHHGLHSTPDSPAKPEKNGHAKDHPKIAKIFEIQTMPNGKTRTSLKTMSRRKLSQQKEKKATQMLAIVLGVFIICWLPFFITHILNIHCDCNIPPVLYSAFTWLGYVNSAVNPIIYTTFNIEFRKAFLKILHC
Chain of Muscarinic acetylcholine receptor M3 (Homo sapiens) (P20309 whole entry, looked up): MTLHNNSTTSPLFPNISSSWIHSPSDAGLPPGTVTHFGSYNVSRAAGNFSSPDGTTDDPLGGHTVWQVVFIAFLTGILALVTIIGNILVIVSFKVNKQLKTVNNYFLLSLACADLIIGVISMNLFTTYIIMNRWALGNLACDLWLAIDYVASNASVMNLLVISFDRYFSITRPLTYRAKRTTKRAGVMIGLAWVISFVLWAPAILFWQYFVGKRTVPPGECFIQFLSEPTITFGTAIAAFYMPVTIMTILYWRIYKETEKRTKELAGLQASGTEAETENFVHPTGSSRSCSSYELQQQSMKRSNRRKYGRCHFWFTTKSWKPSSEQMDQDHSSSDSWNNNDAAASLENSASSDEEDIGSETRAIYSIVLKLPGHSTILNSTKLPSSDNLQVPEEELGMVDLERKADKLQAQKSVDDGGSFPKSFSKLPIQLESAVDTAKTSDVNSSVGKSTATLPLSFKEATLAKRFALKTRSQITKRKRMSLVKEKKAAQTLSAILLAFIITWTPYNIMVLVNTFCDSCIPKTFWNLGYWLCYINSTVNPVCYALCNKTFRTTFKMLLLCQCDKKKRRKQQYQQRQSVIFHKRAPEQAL
Chain of Leukotriene C4 synthase (Cavia porcellus) (A6XA80 whole entry): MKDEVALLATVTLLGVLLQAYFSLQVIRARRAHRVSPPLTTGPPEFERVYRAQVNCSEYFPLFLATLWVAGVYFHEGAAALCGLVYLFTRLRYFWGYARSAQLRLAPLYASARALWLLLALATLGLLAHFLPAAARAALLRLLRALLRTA

Compound: N=C(N)NCCC[C@@H](NC(=O)C(c1ccccc1)c1ccccc1)C(=O)NCc1ccc(CNC(N)=O)cc1
- residual activity [1]: 77%
- residual activity [2]: 94%
- residual activity [3]: 73%
- residual activity [4]: 89%
- residual activity [5]: 40%
- residual activity [6]: 95%
- residual activity [7]: 89%
- IC50 [8]: > 1 µM (not active)
- residual activity [9]: 87%
- residual activity [10]: 91%
- residual activity [11]: 109%
- residual activity [12]: 106%
- residual activity [13]: 91%
- residual activity [14]: 56%
- residual activity [15]: 118%
- residual activity [16]: 117%
- residual activity [17]: 106%
- residual activity [18]: 77%
- residual activity [19]: 66%
- residual activity [20]: 96%
- IC50 [21]: > 10 µM (not active)
- residual activity [22]: 102%
- residual activity [23]: 94%
- residual activity [24]: 102%
- residual activity [25]: 87%
- IC50 [26]: > 10 µM (not active)
- residual activity [27]: 97%
- residual activity [28]: 110%
- residual activity [29]: 61%
- residual activity [30]: 100%
- residual activity [31]: 97%
- residual activity [32]: 86%
- residual activity [33]: 95%
- residual activity [34]: 92%
- residual activity [35]: 105%
